The target in assay [1] is T1, human Histamine H3 receptor (hH3R) (Homo sapiens, UniProt Q9Y5N1).
T1 construct: expressed in transfected cells; host or cells: CHO cells (membranes)
Kind of assay: Guanosine 5'-O-(3-[35S]thio)triphosphate [GTPγS] Binding Assay. The assay is classed as biochemical. The following applies: antagonist activity; membranes from CHO cells expressing hH3R, (R)-α-methyl histamine 30 nM, [35S]GTPγS 0.2 nM, 90 minutes. The procedure:
Guanosine 5′-O-(3-[^35]thio)triphosphate [GTPγS] Binding Assay
The GTPγS binding assay can be used to investigate antagonist properties of compounds in CHO cells (Chinese Hamster Ovary) transfected with human Histamine H3 receptor (hH3R). […] To determine antagonist activity, (R)-α-methyl histamine (30 nM) is added in 96 well SPA plate with [^35S]GTPγS (0.2 nM) and various concentration of H3R antagonists. The GTPγS binding assay is started with addition of the mixture membrane/saponine/GDP and incubated for 90 minutes at room temperature. The amount of bound [^35S]GTPγS is determined by using the MicroBeta Trilux counter (PerkinElmer). The percentage of [^35S]GTPγS bound in each sample is calculated as a percentage of that bound control sample incubated in absence of H3 antagonist. Duplicate determinations are obtained for each concentration, and the data are analyzed using ExcelFit4 to obtain the IC50.
Background: GTPγS resists hydrolysis and so accumulates on activated G proteins.

The target in assay [2] is human histamine H3 receptors (full-length H3, isoform 445) (Homo sapiens, UniProt Q9Y5N1). The following applies: hH3 binding IC50 (nM), inhibition of 1.4 nM [3H]-N-α-methylhistamine binding to CHO-K1 membranes expressing human H3, SPA, 1.5 hr.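 Note: scintillation counts read after the 1.5 hr incubation at room temperature with shaking, Imetit serving as reference control.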
Chain of human histamine H3 receptors (full-length H3, isoform 445) (Q9Y5N1 whole entry, canonical isoform): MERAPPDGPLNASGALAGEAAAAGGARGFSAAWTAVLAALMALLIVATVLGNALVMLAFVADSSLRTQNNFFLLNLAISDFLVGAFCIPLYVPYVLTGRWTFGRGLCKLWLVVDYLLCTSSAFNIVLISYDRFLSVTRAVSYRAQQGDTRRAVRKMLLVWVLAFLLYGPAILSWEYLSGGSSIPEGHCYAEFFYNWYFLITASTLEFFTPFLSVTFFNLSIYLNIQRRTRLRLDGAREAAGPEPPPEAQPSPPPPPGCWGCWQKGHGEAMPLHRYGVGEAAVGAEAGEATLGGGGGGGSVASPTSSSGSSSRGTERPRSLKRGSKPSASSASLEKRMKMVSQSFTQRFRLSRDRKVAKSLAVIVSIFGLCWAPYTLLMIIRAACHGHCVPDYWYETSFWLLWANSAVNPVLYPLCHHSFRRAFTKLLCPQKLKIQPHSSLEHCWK
Procedure: Histamine H3 SPA with the Agonist Radioligand [^3H]—N-α-methylhistamine
Reproducibility of the assay is such that IC50 curves can be generated in singlicate. Single poke (SP) testing was done in triplicate.
Membranes, prepared from CHO-K1 cells stably expressing the human histamine H3 receptor, were obtained from ACS.
Tested formula I compounds were provided as solubilized samples in neat DMSO. Serial dilutions were performed in DMSO.
Plates were read on a Perkin Elmer TopCount. CPM data were used to analyze unless DPM data generated by a quench curve were required.
• 1. 1 mg/ml BSA was added to assay buffer (AB) on day of assay. • 2. […] Buffer volume was split between beads and membranes to allow for polytroning of membranes prior to addition to beads. • a. […] Waited a minimum of 15 minutes prior to adding membranes (See b. below.). • b. […] The homogenized membrane mixture was combined with the beads and a minimum of 30 minutes was waited prior to dispensing to plate. • 3. Formula I compounds: For Single Poke, 2 μl 1 mM of a compound in accordance with formula I was dispensed to Optiplates (triplicate plates) for final concentration of 10 μM. […] Imetit (see below) was used as a control. • 4. […] 5 μl samples were calculated in quadruplicate on the β counter. […] (For IC50s, use final concentration on calculation tab of ABase template.)
• 1. […] 2 μl of the formula I compound dilution was mixed and then transferred into assay plates. DMSO was removed and 2 μl of 100 μM Imetit was added to the wells. • 3. 178 μl bead/membrane mixture was dispensed into the assay plate. • 4. 20 μl [^3H]-NAMH was added with Rapid Plate. The assay plate was sealed and incubated for 1.5 hr on RT shaker at speed ˜6.5. • 5. The assay plate was subsequently centrifuged at 1000 rpm for 10 minutes. • 6. The count was performed on TopCount using one of the 3H SPA H3 Quench programs.
The DPM data was analyzed when tSIS was less than that associated with 70% of full scale on the quench curve (tSIS<25%). Otherwise, CPM data was used.

T1 sequence (Q9Y5N1 whole entry): as the sequence (Q9Y5N1 whole entry, canonical isoform) above

For the molecule `O=C(C1CC12CCN(CCc1ccccc1)CC2)N1CCN(C2CCCCC2)CC1` (single isomer, unassigned) [Example 17, (4-Cyclohexyl-piperazin-1-yl)-(6-phenethyl-6-aza-spiro[2.5]oct-1-yl)-methanone], the IC50 came out at 16.4 nM in assay [1] and 27.4 nM in assay [2].
In the same order, the values of `O=C(C1CC12CCN(CCc1ccccc1)CC2)N1CCN(C2CCCCC2)CC1` (single isomer, unassigned) [Example 18, (4-Cyclohexyl-piperazin-1-yl)-(6-phenethyl-6-aza-spiro[2.5]oct-1-yl)-methanone] are 125 nM and 407 nM.
On to `O=C(C1CC12CCN(C1CCCCC1)CC2)N1CCN(C2CCC2)CC1` (single isomer, unassigned) [Example 26, (4-Cyclobutyl-piperazin-1-yl)-(6-cyclohexyl-6-aza-spiro[2.5]oct-1-yl)-methanone], for which the IC50 in assay [1] stood at 6.55 nM; in assay [2], 1.35 nM.
The matching figures for `O=C(C1CC12CCN(C1CCCCC1)CC2)N1CCN(C2CCC2)CC1` (single isomer, unassigned) [Example 27, (4-Cyclobutyl-piperazin-1-yl)-(6-cyclohexyl-6-aza-spiro[2.5]oct-1-yl)-methanone]: 44 nM and 7.68 nM.
As for `CC(C)N1CCN(C(=O)C2CC23CCN(C2CCOCC2)CC3)CC1` (single isomer, unassigned) [Example 28, (4-Isopropyl-piperazin-1-yl)-[6-(tetrahydro-pyran-4-yl)-6-aza-spiro[2.5]oct-1-yl]-methanone], the results for the IC50 in assay [1] and in assay [2] were 13.2 nM and 2.66 nM, respectively.
Take `CC(C)N1CCN(C(=O)C2CC23CCN(C2CCOCC2)CC3)CC1` (single isomer, unassigned) [Example 29, (4-Isopropyl-piperazin-1-yl)-[6-(tetrahydro-pyran-4-yl)-6-aza-spiro[2.5]oct-1-yl]-methanone]: the concentration for half-maximal inhibition (IC50) was 87.5 nM in assay [1] and 50.9 nM in assay [2].
The matching figures for `O=C(C1CC12CCN(C1CCOCC1)CC2)N1CCN(C2CCCCC2)CC1` (centres unmarked) [Example 1, (4-Cyclohexyl-piperazin-1-yl)-[6-(tetrahydro-pyran-4-yl)-6-aza-spiro[2.5]oct-1-yl]-methanone]: 13 nM and 33.6 nM.
`O=C(C1CC12CCN(C1CCOCC1)CC2)N1CCN(CC2CCCCC2)CC1` (centres unmarked) [Example 2, (4-Cyclohexylmethyl-piperazin-1-yl)-[6-(tetrahydro-pyran-4-yl)-6-aza-spiro[2.5]oct-1-yl]-methanone] had an IC50 in assay [2] of 390 nM.
With `CCC(CC)CN1CCC2(CC1)CC2C(=O)N1CCN(C)CC1` (centres unmarked) [Example 3, [6-(2-Ethyl-butyl)-6-aza-spiro[2.5]oct-1-yl]-(4-methyl-piperazin-1-yl)-methanone], the IC50 in assay [2] came out at 1000 nM.
As for `CN1CCN(C(=O)C2CC23CCN(C/C=C/c2ccccc2)CC3)CC1` (centres unmarked) [Example 4, (4-Methyl-piperazin-1-yl)-[6-((E)-3-phenyl-allyl)-6-aza-spiro[2.5]oct-1-yl]-methanone], the IC50 in assay [2] came out at 800 nM.
In assay [2], `CN1CCN(C(=O)C2CC23CCN(CCc2ccccc2)CC3)CC1` (centres unmarked) [Example 5, (4-Methyl-piperazin-1-yl)-(6-phenethyl-6-aza-spiro[2.5]oct-1-yl)-methanone] showed an IC50 of 640 nM.
`CN1CCC(N2CCC3(CC2)CC3C(=O)N2CCN(C)CC2)CC1` (centres unmarked) [Example 6, (4-Methyl-piperazin-1-yl)-[6-(1-methyl-piperidin-4-yl)-6-aza-spiro[2.5]oct-1-yl]-methanone] had an IC50 in assay [2] of 1300 nM. This IC50 lies about 2-fold higher than the previous one.
As for `CN1CCN(C(=O)C2CC23CCN(C2CCOCC2)CC3)CC1` (centres unmarked) [Example 7, (4-Methyl-piperazin-1-yl)-[6-(tetrahydro-pyran-4-yl)-6-aza-spiro[2.5]oct-1-yl]-methasone], the IC50 is 1200 nM in assay [1] and 1400 nM in assay [2].
In assay [2], `O=C(C1CC12CCN(C1CCOCC1)CC2)N1CCN(c2ccccn2)CC1` (centres unmarked) [Example 13, (4-Pyridin-2-yl-piperazin-1-yl)-[6-(tetrahydro-pyran-4-yl)-6-aza-spiro[2.5]oct-1-yl]-methanone] registered an IC50 of 573 nM. This lies in the sub-micromolar range.
`COc1ccc(N2CCN(C(=O)C3CC34CCN(C3CCOCC3)CC4)CC2)cc1` (centres unmarked) [Example 15, [4-(4-Methoxy-phenyl)-piperazin-1-yl]-[6-(tetrahydro-pyran-4-yl)-6-aza-spiro[2.5]oct-1-yl]-methanone] had an IC50 in assay [2] of 322 nM.
On the same count and under the same terms, as for `O=C(C1CC12CCN(Cc1ccccc1)CC2)N1CCN(C2CCCCC2)CC1` (centres unmarked) [Example 23, (6-Benzyl-6-aza-spiro[2.5]oct-1-yl)-(4-cyclohexyl-piperazin-1-yl)-methanone], the figure is 306 nM.
Same read-out and setting: as for `O=C(C1CC12CCN(C1CCOCC1)CC2)N1CCN(C2CCOCC2)CC1` (centres unmarked) [Example 24, [6-(Tetrahydro-pyran-4-yl)-6-aza-spiro[2.5]oct-1-yl]-[4-(tetrahydro-pyran-4-yl)-piperazin-1-yl]-methanone], the figure is 336 nM; as for `O=C(C1CC12CCN(CCOCc1ccccc1)CC2)N1CCN(C2CCCCC2)CC1` (centres unmarked) [Example 25, [6-(2-Benzyloxy-ethyl)-6-aza-spiro[2.5]oct-1-yl]-(4-cyclohexyl-piperazin-1-yl)-methanone], 419 nM.
In assay [2], `CC(C)(C)OC(=O)CN1CCC2(CC1)CC2C(=O)N1CCN(C2CCC2)CC1` (centres unmarked) [Example 36, [1-(4-Cyclobutyl-piperazine-1-carbonyl)-6-aza-spiro[2.5]oct-6-yl]-acetic acid tert-butyl ester] registered an IC50 of 182 nM.
The same measure, in the same setting: as for `CNC(=O)CN1CCC2(CC1)CC2C(=O)N1CCN(C2CCC2)CC1` (centres unmarked) [Example 37, 2-[1-(4-Cyclobutyl-piperazine-1-carbonyl)-6-aza-spiro[2.5]oct-6-yl]-N-methyl-acetamide], the figure is 207 nM; as for `CS(=O)(=O)c1ccc(N2CCC3(CC2)CC3C(=O)N2CCN(C3CCC3)CC2)cc1` (centres unmarked) [Example 38, (4-Cyclobutyl-piperazin-1-yl)-[6-(4-methanesulfonyl-phenyl)-6-aza-spiro[2.5]oct-1-yl]-methanone], 336 nM.
Still for that read-out and setting: as for `COc1ccc(N2CCC3(CC2)CC3C(=O)N2CCN(C3CCC3)CC2)cc1` (centres unmarked) [Example 39, (4-Cyclobutyl-piperazin-1-yl)-[6-(4-methoxy-phenyl)-6-aza-spiro[2.5]oct-1-yl]-methanone], the figure is 361 nM.
Consider `COC(=O)c1ccc(N2CCC3(CC2)CC3C(=O)N2CCN(C3CCC3)CC2)cc1` (centres unmarked) [Example 40, 4-[1-(4-Cyclobutyl-piperazine-1-carbonyl)-6-aza-spiro[2.5]oct-6-yl]-benzoic acid methyl ester], for which the IC50 in assay [2] was 470 nM.
The same measure, in the same setting: as for `COc1cccc(N2CCC3(CC2)CC3C(=O)N2CCN(C3CCC3)CC2)n1` (centres unmarked) [Example 41, (4-Cyclobutyl-piperazin-1-yl)-[6-(6-methoxy-pyridin-2-yl)-6-aza-spiro[2.5]oct-1-yl]-methanone], the figure is 542 nM.
Same read-out and setting: as for `O=C(C1CC12CCN(c1cccc(Cl)n1)CC2)N1CCN(C2CCC2)CC1` (centres unmarked) [Example 42, [6-(6-Chloro-pyridin-2-yl)-6-aza-spiro[2.5]oct-1-yl]-(4-cyclobutyl-piperazin-1-yl)-methanone], the figure is 594 nM; as for `COCCN1CCC2(CC1)CC2C(=O)N1CCN(C2CCCCC2)CC1` (centres unmarked) [Example 43, (4-Cyclohexyl-piperazin-1-yl)-[6-(2-methoxy-ethyl)-6-aza-spiro[2.5]oct-1-yl]-methanone], 615 nM; as for `O=C(C1CC12CCN(c1ccccn1)CC2)N1CCN(C2CCC2)CC1` (centres unmarked) [Example 44, (4-Cyclobutyl-piperazin-1-yl)-(6-pyridin-2-yl-6-aza-spiro[2.5]oct-1-yl)-methanone], 736 nM.
As for `Cc1ccc(N2CCC3(CC2)CC3C(=O)N2CCN(C3CCC3)CC2)cc1` (centres unmarked) [Example 45, (4-Cyclobutyl-piperazin-1-yl)-(6-p-tolyl-6-aza-spiro[2.5]oct-1-yl)-methanone], the IC50 in assay [2] is 791 nM.
On to `O=C(C1CC12CCN(c1ccc(C(F)(F)F)cn1)CC2)N1CCN(C2CCCCC2)CC1` (centres unmarked) [Example 46, (4-Cyclohexyl-piperazin-1-yl)-[6-(5-trifluoromethyl-pyridin-2-yl)-6-aza-spiro[2.5]oct-1-yl]-methanone], for which the IC50 in assay [2] amounted to 10000 nM.
The same measure, in the same setting: as for `O=C(C1CC12CCN(c1ccc3c(c1)OCO3)CC2)N1CCN(C2CCCCC2)CC1` (centres unmarked) [Example 47, (6-Benzo[1,3]dioxol-5-yl-6-aza-spiro[2.5]oct-1-yl)-(4-cyclohexyl-piperazin-1-yl)-methanone], the figure is 5170 nM.
On to `O=C(C1CC12CCN(C1CCOCC1)CC2)N1CCN(c2cccnc2)CC1` (centres unmarked) [Example 48, (4-(pyridin-3-yl)piperazin-1-yl)(6-(tetrahydro-2H-pyran-4-yl)-6-azaspiro[2.5]octan-1-yl)methanone], for which the IC50 in assay [1] is 308 nM. This counts as sub-micromolar.
With `Cc1cc(N2CCN(C(=O)C3CC34CCN(C3CCOCC3)CC4)CC2)ccn1` (centres unmarked) [Example 49, (4-(2-methylpyridin-4-yl)piperazin-1-yl)(6-(tetrahydro-2H-pyran-4-yl)-6-azaspiro[2.5]octan-1-yl)methanone], in assay [1], the IC50 is 249 nM.
Consider `Cc1cnccc1N1CCN(C(=O)C2CC23CCN(C2CCOCC2)CC3)CC1` (centres unmarked) [Example 50, (4-(3-methylpyridin-4-yl)piperazin-1-yl)(6-(tetrahydro-2H-pyran-4-yl)-6-azaspiro[2.5]octan-1-yl)methanone], for which the IC50 in assay [1] is 115 nM. Compared with the last molecule, the IC50 is about 2.2-fold lower.

A word on the IC50: it is the midpoint of a concentration-inhibition curve.
